This is an account of results in patent US8680159B2, “Bradykinin 1 receptor modulating compounds” (Gruenenthal GmbH, priority 2010, dated 2014).

The first assay deals with T1, B1R receptor of the rat (CHO K1 cells stably transfected with the B1R gene of the rat) (Rattus norvegicus, UniProt P97583).
T1 construct: expressed in transfected cells; host or cells: CHO K1 cells (Chinese hamster ovary), stably transfected
T1 sequence (P97583 1-337): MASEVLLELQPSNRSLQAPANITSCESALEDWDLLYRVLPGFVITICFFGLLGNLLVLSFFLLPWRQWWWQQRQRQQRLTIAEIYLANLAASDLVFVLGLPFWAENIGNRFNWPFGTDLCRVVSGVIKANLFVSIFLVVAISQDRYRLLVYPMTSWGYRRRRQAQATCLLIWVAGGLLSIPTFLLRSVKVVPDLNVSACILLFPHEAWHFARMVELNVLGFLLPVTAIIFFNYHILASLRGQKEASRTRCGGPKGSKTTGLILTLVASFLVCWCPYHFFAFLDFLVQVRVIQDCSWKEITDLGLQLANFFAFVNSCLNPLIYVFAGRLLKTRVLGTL
In words: Functional study on the bradykinin receptor 1 (B1R), Ca2+ fluorescence (Fluo-4) FLIPR/Novostar assay, rB1R cells. The class given is cell-based. Particulars: 10 μM. The procedure: The agonistic or antagonistic action of substances can be quantified on the bradykinin receptor 1 (B1R) of the species human and rat using ectopically expressing cell lines (CHO K1 cells) and with the aid of a Ca^2+-sensitive dye (Fluo-4) using a fluorescent imaging plate reader (FLIPR). The indication in % activation is based on the Ca^2+ signal after addition of Lys-Des-Arg^9-bradykinin (0.5 nM) or Des-Arg^9-bradykinin (100 nM). Antagonists lead to suppression of the Ca^2+ influx after the addition of the agonist. % Inhibition compared with the maximum achievable inhibition is indicated.
The agonistic or antagonistic action of substances can be determined on the bradykinin receptor 1 (B1R) of the species human and rat using the following assay. According to this assay, the increase in intracellular Ca^2+ following administration of a B1R agonist is quantified with the aid of a Ca^2+-sensitive dye (Fluo-4 type, Molecular Probes Europe BV, Leiden, Netherlands) using a Fluorescent Imaging Plate Reader (FLIPR, Molecular Devices, Sunnyvale, USA) and/or using a Novostar (BMG Labtech GmbH, Offenburg, Germany).
Chinese hamster ovary cells (CHO K1 cells) which have been stably transfected with the human B1R gene (hB1R cells) or with the B1R gene of the rat (rB1R cells) are used. For functional studies, the cells are plated out on black 96-well plates having a clear base (BD Biosciences, Heidelberg, Germany or Greiner, Frickenhausen, Germany) in a density of 20,000-35,000 cells/well. The cells are left overnight at 37° C. and with 5% CO2 in culture medium (hB1R cells: Nutrient Mixture Ham's F12, Gibco Invitrogen GmbH, Karlsruhe, Germany or DMEM, Sigma-Aldrich, Taufkirchen, Germany; rB1R cells: D-MEM/F12, Gibco Invitrogen GmbH, Karlsruhe, Germany), with 10 vol. % FBS (fetal bovine serum, Gibco Invitrogen GmbH, Karlsruhe, Germany or PAN Biotech GmbH, Aidenbach, Germany). On the following day, the cells are loaded for 60 minutes at 37° C. with 2.13 μM Fluo-4 (Molecular Probes Europe BV, Leiden, Netherlands) in HBSS buffer (Hank's buffered saline solution, Gibco Invitrogen GmbH, Karlsruhe, Germany) […] (Sigma-Aldrich, Taufkirchen, Germany) and 10 mM HEPES (Sigma-Aldrich, Taufkirchen, Germany). The plates are then washed twice with HBSS buffer, and HBSS buffer additionally containing 0.1% BSA (bovine serum albumin; Sigma-Aldrich, Taufkirchen, Germany), 5.6 mM glucose and 0.05% gelatin (Merck KGaA, Darmstadt, Germany) is added to the plates. After incubation for a further 20 minutes at room temperature, the plates are inserted into the FLIPR or Novostar for Ca^2+ measurement. Alternatively, washing is carried out with buffer A (15 mM HEPES, 80 mM NaCl, 5 mM KCl, 1.2 mM CaCl2, 0.7 mM MgSO4, 2 g/l glucose, 2.5 mM probenecid) followed by loading with buffer A with added 2.5 μM Fluo-4 and 0.025% Pluronic F127 (Sigma-Aldrich, Taufkirchen, Germany). The cells are then washed twice with buffer A and incubated for 30 minutes at room temperature with buffer A additionally containing 0.05% BSA and 0.05% gelatin and are then inserted into the FLIPR or Novostar for Ca^2+ measurement. The Ca^2+-dependent fluorescence is measured before and after the addition of substances (λex=488 nm, λem=540 nm). Quantification is carried out by measuring the highest fluorescence intensity (FC, fluorescence counts) over time.
The FLIPR protocol consists of 2 substance additions, which are pipetted in the FLIPR. In the case of measurements using the Novostar, only the second substance addition is pipetted in the device. Both devices measure the fluorescence intensity over time. Test substances (10 μM) are first pipetted onto the cells and the intracellular Ca^2+ increase is compared with the control (hB1R: Lys-Des-Arg^9-bradykinin>=50 nM; rB1R: Des-Arg^9-bradykinin>=1 μM). This gives the % activation, based on the Ca^2+ signal after addition of Lys-Des-Arg^9-bradykinin (>=50 nM) or Des-Arg^9-bradykinin (>=1 μM). […]
In the case of `CN(C(=O)NC1CC(C)(C)c2ccc(C(=O)N(C)C3CCN(c4ccncc4)CC3)cc21)c1ccccc1Cl` (stereo not drawn) [CC_H-245, 3-[[(2-Chlorophenyl)-methyl-carbamoyl]amino]-N,1,1-trimethyl-N-(1-pyridin-4-yl-piperidin-4-yl)-2,3-dihydro-indene-5-carboxylic acid amide], the “% Inhibition (r-B1R) at 10 μM” value amounted to 107%.

Turning to `CN(C(=O)c1ccc2c(c1)C(NC(=O)c1c(Cl)cccc1C(F)(F)F)CCC2)C1CCN(c2ccncc2)CC1` (stereo not drawn) [CC_H-249, 8-[[2-Chloro-6-(trifluoromethyl)-benzoyl]amino]-N-methyl-N-(1-pyridin-4-yl-piperidin-4-yl)-5,6,7,8-tetrahydro-naphthalene-2-carboxylic acid amide], the “% Inhibition (r-B1R) at 10 μM” value is 110%.

Staying with this assay, now noted: CHO-K1, 10 μM, read-out: % Inhibition (r-B1R) at 10 μM.
As for `CN(C(=O)c1ccc2c(c1)C(NC(=O)c1cc(F)ccc1Cl)CCC2)C1CCN(c2ccncc2)CC1` (stereo not drawn) [CC_H-246, 8-[(2-Chloro-5-fluoro-benzoyl)amino]-N-methyl-N-(1-pyridin-4-yl-piperidin-4-yl)-5,6,7,8-tetrahydro-naphthalene-2-carboxylic acid amide], the inhibition at 10 µM amounted to 112%.

As to `CN(C(=O)c1ccc2c(c1)C(NC(=O)c1cc(C(F)(F)F)ccc1Cl)CCC2)C1CCN(c2ccncc2)CC1` (stereo not drawn) [CC_H-247, 8-[[2-Chloro-5-(trifluoromethyl)-benzoyl]amino]-N-methyl-N-(1-pyridin-4-yl-piperidin-4-yl)-5,6,7,8-tetrahydro-naphthalene-2-carboxylic acid amide], the inhibition at 10 µM is 112%.

As for `Cc1ccc(F)c(C(=O)NC2CCCc3ccc(C(=O)N(C)C4CCN(c5ccncc5)CC4)cc32)c1Cl` (stereo not drawn) [CC_H-248, 8-[(2-Chloro-6-fluoro-3-methyl-benzoyl)amino]-N-methyl-N-(1-pyridin-4-yl-piperidin-4-yl)-5,6,7,8-tetrahydro-naphthalene-2-carboxylic acid amide], the inhibition at 10 µM came to 111%.

As for `CN(C(=O)c1ccc2c(c1)C(NC(=O)C1CC1)CCC2)C1CCN(c2ccncc2)CC1` (stereo not drawn) [CC_H-250, 8-(Cyclopropanecarbonylamino)-N-methyl-N-(1-pyridin-4-yl-piperidin-4-yl)-5,6,7,8-tetrahydro-naphthalene-2-carboxylic acid amide], the inhibition at 10 µM is 103%.

On to `CN(C(=O)c1ccc2c(c1)C(NC(=O)CC(C)(C)C)CCC2)C1CCN(c2ccncc2)CC1` (stereo not drawn) [CC_H-251, 8-(3,3-Dimethyl-butanoylamino)-N-methyl-N-(1-pyridin-4-yl-piperidin-4-yl)-5,6,7,8-tetrahydro-naphthalene-2-carboxylic acid amide], for which the inhibition at 10 µM came to 111%.

Turning to `COCC(=O)NC1CCCc2ccc(C(=O)N(C)C3CCN(c4ccncc4)CC3)cc21` (stereo not drawn) [CC_H-252, 8-[(2-Methoxy-acetyl)amino]-N-methyl-N-(1-pyridin-4-yl-piperidin-4-yl)-5,6,7,8-tetrahydro-naphthalene-2-carboxylic acid amide], the inhibition at 10 µM amounted to 107%.

As to `CC(=O)NC1CCCc2ccc(C(=O)N(C)C3CCN(c4ccncc4)CC3)cc21` (stereo not drawn) [CC_H-253, 8-Acetylamino-N-methyl-N-(1-pyridin-4-yl-piperidin-4-yl)-5,6,7,8-tetrahydro-naphthalene-2-carboxylic acid amide], the inhibition at 10 µM was 110%.

With `CN(C(=O)c1ccc2c(c1)C(NC(=O)c1cccc(C(F)(F)F)c1Cl)CCC2)C1CCN(c2ccncc2)CC1` (stereo not drawn) [CC_H-254, 8-[[2-Chloro-3-(trifluoromethyl)-benzoyl]amino]-N-methyl-N-(1-pyridin-4-yl-piperidin-4-yl)-5,6,7,8-tetrahydro-naphthalene-2-carboxylic acid amide], the inhibition at 10 µM came out at 111%.

On to `CN(C(=O)c1ccc2c(c1)C(NC(=O)Nc1ccccc1Cl)CCC2)C1CCN(c2ccncc2)CC1` (stereo not drawn) [CC_H-255, 8-[[(2-Chlorophenyl)-carbamoyl]amino]-N-methyl-N-(1-pyridin-4-yl-piperidin-4-yl)-5,6,7,8-tetrahydro-naphthalene-2-carboxylic acid amide], for which the inhibition at 10 µM stood at 104%.

Regarding `CN(C(=O)c1ccc2c(c1)C(NC(=O)Nc1cccc(Cl)c1)CCC2)C1CCN(c2ccncc2)CC1` (stereo not drawn) [CC_H-256, 8-[[(3-Chlorophenyl)-carbamoyl]amino]-N-methyl-N-(1-pyridin-4-yl-piperidin-4-yl)-5,6,7,8-tetrahydro-naphthalene-2-carboxylic acid amide], the inhibition at 10 µM is 96%.

`CN(C(=O)c1ccc2c(c1)C(NC(=O)Nc1c(Cl)cccc1Cl)CCC2)C1CCN(c2ccncc2)CC1` (stereo not drawn) [CC_H-257, 8-[[(2,6-Dichloro-phenyl)-carbamoyl]amino]-N-methyl-N-(1-pyridin-4-yl-piperidin-4-yl)-5,6,7,8-tetrahydro-naphthalene-2-carboxylic acid amide]: the inhibition at 10 µM was 107%.

In the case of `CN(C(=O)c1ccc2c(c1)C(NC(=O)Nc1cccc(Cl)c1Cl)CCC2)C1CCN(c2ccncc2)CC1` (stereo not drawn) [CC_H-258, 8-[[(2,3-Dichloro-phenyl)-carbamoyl]amino]-N-methyl-N-(1-pyridin-4-yl-piperidin-4-yl)-5,6,7,8-tetrahydro-naphthalene-2-carboxylic acid amide], the inhibition at 10 µM came to 106%.

As to `CN(C(=O)c1ccc2c(c1)C(NC(=O)Nc1cc(Cl)ccc1Cl)CCC2)C1CCN(c2ccncc2)CC1` (stereo not drawn) [CC_H-259, 8-[[(2,5-Dichloro-phenyl)-carbamoyl]amino]-N-methyl-N-(1-pyridin-4-yl-piperidin-4-yl)-5,6,7,8-tetrahydro-naphthalene-2-carboxylic acid amide], the inhibition at 10 µM amounted to 100%.

Consider `CN(C(=O)c1ccc2c(c1)C(NC(=O)Nc1cc(Cl)cc(Cl)c1)CCC2)C1CCN(c2ccncc2)CC1` (stereo not drawn) [CC_H-260, 8-[[(3,5-Dichloro-phenyl)-carbamoyl]amino]-N-methyl-N-(1-pyridin-4-yl-piperidin-4-yl)-5,6,7,8-tetrahydro-naphthalene-2-carboxylic acid amide], for which the inhibition at 10 µM is 61%.

As for `CN(C(=O)c1ccc2c(c1)C(NC(=O)Nc1cc(C(F)(F)F)ccc1Cl)CCC2)C1CCN(c2ccncc2)CC1` (stereo not drawn) [CC_H-261, 8-[[[2-Chloro-5-(trifluoromethyl)-phenyl]-carbamoyl]amino]-N-methyl-N-(1-pyridin-4-yl-piperidin-4-yl)-5,6,7,8-tetrahydro-naphthalene-2-carboxylic acid amide], the inhibition at 10 µM was determined as 103%.

For the compound `CN(C(=O)c1ccc2c(c1)C(NC(=O)Nc1ccc(Cl)cc1Cl)CCC2)C1CCN(c2ccncc2)CC1` (stereo not drawn) [CC_H-262, 8-[[(2,4-Dichlorophenyl)-carbamoyl]amino]-N-methyl-N-(1-pyridin-4-yl-piperidin-4-yl)-5,6,7,8-tetrahydro-naphthalene-2-carboxylic acid amide], the inhibition at 10 µM amounted to 82%.

What is called inhibition is the change of the read-out against control, counted positive when it falls.
